Assay results reported in patent publication US10463709B2, “Short synthetic peptide for treating diseases and/or conditions related to angiogenesis” (MacKay Memorial Hospital, priority 2015, dated 2019).
Entries after “also recorded” stand apart in the source; their conditions may differ. Ends that are not written are not given here.

Tests used:
[1] = test system: HUVECs; assay: VEGF-induced HUVEC proliferation assay; assay type: cell-based; conditions: VEGF (10 ng/mL) + 25 μM peptide; vs untreated HUVECs
[2] = test system: HUVECs; assay: Apoptosis assay (annexin V-FITC); assay type: cell-based; conditions: treatment for 16 hrs; annexin V-FITC staining
Method: The percentage of apoptotic HUVEC cells was assayed using TACS annexin V-FITC kit. The percentage of annexin V-positive cells was determined using in situ staining according to the manufacturer's instruction. The cell number was determined by counterstaining with Hoechst 33342. The nuclei in ten randomly selected fields of the three different chambers (˜7200 cells) were counted. Specimens were examined and photographed on a Zeiss epifluorescence microscope (×100, 10 fields/sample). Pictures were recorded on Zeiss software.

[3] = test system: B16-F10 melanoma cells; assay: Experimental pulmonary metastasis in mice; assay type: in vivo, C57BL/6 mice
Method: 2×10^5 B16-F10 cells were suspended in 100 μl PBS and checked for viability using trypan blue staining (>95%). The B16-F10 cells were then injected into the tail vein of the 6-week-old female C57BL/6 mice; while vehicle (DMSO), the present synthetic peptide or the control peptide (10 mg/kg) were administered by intraperitoneal injections every 2 days after the B16-F10 cell injection. Five mice were used for each group. On day 8 after inoculation of cells, the lungs were removed, and the number of visible colonies on the surface of the lungs were counted using a dissecting microscope.
Metastasis is the foremost cause of death from cancer. In this example, to investigate the efficacy of the present synthetic peptide on the metastasis of cancer cells, B16-F10 cells were injected into the tail vein of a mouse, the animal was then treated with the present synthetic peptide (7-mer or 7-mer DD, 10 mg/Kg) by intraperitoneal injections every 2 days. Upon completion of the experiment, the lungs were then removed and the tumor colonies visible to the eyes were then counted. Results are depicted in FIG. 10.

[4] = test system: RPMI8226 cells; assay: MTT assay, VEGF-induced proliferation of RPMI8226 cells; assay type: cell-based
Method in brief: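 After 24 h serum starvation, cells seeded at 3×10^5/well and cultured 24 h in serum-free RPMI1640 with 25 μM peptide, VEGF serving as proliferation stimulus. Viability by MTT (4 h, 37° C), DMSO solubilisation 20 min, absorbance at 570 nm.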

[5] = test system: rat model of laser-induced wet AMD; assay: Laser-induced wet AMD, rat model; assay type: in vivo; conditions: fluorescein angiography day 14; vs PBS vehicle
Excerpt: Further, the effect of 7-mer or 7-mer DD on rat model of laser-induced wet AMD was also investigated. Fluorescein angiography images were obtained on day 14 after laser burn, and the images were subsequently scored. Results are depicted in FIG. 14.

[6] = test system: HUVECs; assay: Endothelial cell capillary-like tube formation assay; assay type: cell-based
[7] = test system: diabetic rats; assay: Vascular abnormalities in the retina of diabetic rats; assay type: in vivo, Sprague-Dawley rats; conditions: intravitreal injection
Method: Diabetes was induced in male Sprague-Dawley rats after fasting overnight by a single intraperitoneal injection of STZ (65 mg/kg body weight). STZ was freshly prepared in 0.1 M citrate buffer (pH 4.5). Rats with blood glucose levels >350 mg/dl for 5 days after receiving STZ were considered to be in diabetic status and were termed diabetic rats hereinafter. Blood glucose levels were checked every 2 days a blood glucose monitor. Animals that served as non-diabetic controls received an equivalent amount of citrate buffer alone. For peptide treatment, diabetic rats were anesthetized by an intraperitoneal injection of a Xylazine (10 mg/kg), and then intravitreally injected with 3 μl of the present synthetic peptide (10 mM) into one eye and an equal volume of PBS was injected into the contralateral eye (n=3-6 per group). After peptide treatment for 24 h, measurement of retinal vascular leakage by BSA-FITC (100 mg/kg body weight) was conducted in according to procedures described above.

[8] = test system: VEGF-induced corneal neovascularization; assay: Mouse corneal angiogenesis assay; assay type: in vivo, C57BL/6 mice; conditions: VEGF 200 ng; peptide 2.5 μg in micropellet
Method: Briefly, corneal micropockets were created on 6-week-old C57BL/6 mice by use of a needle. A micropellet of sucrose aluminum sulfate and hydron polymer containing 200 ng VEGF with or without 2.5 μg peptide was plated into each corneal pocket. Eyes were then photographed by a slit-lamp biomicroscope on day 7 after micropellet implantation. Ingrowth of the blood vessels into avascular cornea toward pellet was scored as positive response. The results were reported as positive corneas of total implant.

In the case of “NH2-Asp-Leu-Tyr-Arg-Val-Arg-Ser-COOH (DLYRVRS; not fully specified (N-terminus, C-terminus); printed as NH2-Asp-Leu-Tyr-Arg-Val-Arg-Ser-COOH) [7-mer]”, the “Cell number (Fold)” value [1] was 0.95 ± 0.050 Fold, the “percentage of apoptotic HUVECs” value [2] was 32.4±3.8% and the “effect on number of colonies on the surface of the lung / in vivo metastasis” value ([3]; 10 mg/Kg intraperitoneal every 2 days) was “capable of reducing the number of colonies; also recorded: may suppress in vivo metastasis”. For the same substance, the No. lung colonies ([3]; 10 mg/Kg intraperitoneal every 2 days, day 8, n = 5) was 72 ± 16.0, the “Inhibition (%)” value ([3]; lung colonies vs vehicle, 10 mg/Kg) was 67.9% and the “dose dependence of inhibitory action on VEGF-induced cell proliferation” value ([4]; 1 to 25 μM, RPMI8226 cells) was “dose dependent manner”. The “effect on VEGF-induced proliferation of RPMI8226 cells” value ([4]; VEGF 50 ng/ml, 25 μM peptide, 24 hrs, MTT) was “suppressed”, the “lesions caused by the laser burn” value [5] was “significantly ameliorated” and the “effect on VEGF-induced tube formation” value ([6]; HUVECs, VEGF, 6 hrs) was “inhibited”. The “Tube length (Fold)” value ([6]; VEGF (10 ng/mL) + 25 μM peptide, vs untreated HUVECs) was 1.24 ± 0.23 Fold, the “levels of leaked FITC-BSA in entire retina vs vehicle” value [7] was 0.43±0.07 fold and the “number of vascular lesion in retina” value ([7]; 24 h) was 9.2±2.15. For the same substance, the “VEGF-induced neovascularization in the cornea” value [8] was “completely abolished”.
